From patent publication US9133148B2, “Carbamate compounds and of making and using same” (Abide Therapeutics, Inc., priority 2012, dated 2015) come the findings set out here.

Each structure is given as a SMILES string.

Format in all cases: biochemical
Assay [1] addresses T1, MAGL (Mus musculus (Mouse), UniProt O35678). Put plainly: Competitive ABPP, % inhibition at 1 uM, MAGL. As to the method:
(§1) In Vitro Competitive Activity-Based Protein Profiling.
(§2) Proteomes (mouse brain membrane fraction or cell lysates) ([…], 1.0 mg/mL total protein concentration) were preincubated with varying concentrations of inhibitors at 37° C. After 30 min, FP-Rh (1.0 μL, 50 μM in DMSO) was added and the mixture was incubated for another 30 min at 37° C. Reactions were quenched with SDS loading buffer (50 μL—4×) and run on SDS-PAGE.

For assay [2], the target named is T2, FAAH (Mus musculus (Mouse), UniProt O08914). Put plainly: Competitive ABPP, % inhibition at 1 uM, FAAH. As to the method:
as §1
Proteomes (mouse brain membrane fraction or cell lysates) ([…], 1.0 mg/mL total protein concentration) were preincubated with varying concentrations of inhibitors at 37° C. After 30 min, FP-Rh (1.0 μL, 50 μM in DMSO) was added and the mixture was incubated for another 30 min at 37° C. Reactions were quenched with SDS loading buffer (50 μL—4×) and run on SDS-PAGE. Following gel imaging, serine hydrolase activity was determined by measuring fluorescent intensity of gel bands corresponding to MAGL, ABHD6 and FAAH using ImageJ 1.43u software.

The target in assay [3] is T3, ABHD6 (Mus musculus (Mouse), UniProt Q8R2Y0). The assay is described as follows: Competitive ABPP, % inhibition at 1 uM, ABHD6. The method, then: as §1, §2
The target in assay [4] is T2, FAAH. Put plainly: In vitro competitive activity-based protein profiling (FP-Rh), mouse FAAH. The following applies: mouse brain membrane proteome, competitive ABPP (Table 7). The method, then: as §1, §2
Assay [5] has as its target T1, MAGL. Put plainly: In vitro competitive activity-based protein profiling (FP-Rh), mouse MAGL. The conditions noted are these: mouse brain membrane proteome, competitive ABPP (Table 7). As to the method:
as §1, §2

The target of assay [6] is T3, ABHD6. The assay is described as follows: In vitro competitive activity-based protein profiling (FP-Rh), mouse ABHD6. The following applies: mouse brain membrane proteome, competitive ABPP (Table 7). As to the method:
as §1, §2

T2 sequence (O08914 whole entry): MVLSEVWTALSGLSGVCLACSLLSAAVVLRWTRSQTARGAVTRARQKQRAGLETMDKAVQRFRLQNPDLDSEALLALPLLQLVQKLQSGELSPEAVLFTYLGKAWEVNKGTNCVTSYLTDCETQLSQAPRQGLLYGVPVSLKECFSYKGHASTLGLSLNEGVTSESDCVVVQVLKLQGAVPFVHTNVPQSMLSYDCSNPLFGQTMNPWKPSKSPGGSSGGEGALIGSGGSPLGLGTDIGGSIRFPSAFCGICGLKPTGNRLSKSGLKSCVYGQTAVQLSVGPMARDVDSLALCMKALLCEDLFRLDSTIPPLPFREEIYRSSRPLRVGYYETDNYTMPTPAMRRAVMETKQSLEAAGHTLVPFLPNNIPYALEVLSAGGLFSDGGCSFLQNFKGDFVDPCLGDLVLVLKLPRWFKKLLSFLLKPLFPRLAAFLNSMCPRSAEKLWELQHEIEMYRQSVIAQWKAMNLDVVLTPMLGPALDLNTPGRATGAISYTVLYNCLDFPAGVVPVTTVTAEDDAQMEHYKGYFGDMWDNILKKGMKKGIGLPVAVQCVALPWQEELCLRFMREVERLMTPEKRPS
T1 sequence (O35678 whole entry): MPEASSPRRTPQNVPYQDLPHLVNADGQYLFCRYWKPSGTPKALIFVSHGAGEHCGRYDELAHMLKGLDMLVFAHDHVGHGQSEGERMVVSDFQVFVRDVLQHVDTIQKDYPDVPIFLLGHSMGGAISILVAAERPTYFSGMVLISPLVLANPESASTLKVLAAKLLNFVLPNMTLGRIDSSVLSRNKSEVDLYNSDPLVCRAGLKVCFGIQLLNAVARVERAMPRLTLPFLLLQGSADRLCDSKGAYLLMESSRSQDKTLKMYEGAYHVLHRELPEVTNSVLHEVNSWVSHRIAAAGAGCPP
T3 sequence (Q8R2Y0 whole entry): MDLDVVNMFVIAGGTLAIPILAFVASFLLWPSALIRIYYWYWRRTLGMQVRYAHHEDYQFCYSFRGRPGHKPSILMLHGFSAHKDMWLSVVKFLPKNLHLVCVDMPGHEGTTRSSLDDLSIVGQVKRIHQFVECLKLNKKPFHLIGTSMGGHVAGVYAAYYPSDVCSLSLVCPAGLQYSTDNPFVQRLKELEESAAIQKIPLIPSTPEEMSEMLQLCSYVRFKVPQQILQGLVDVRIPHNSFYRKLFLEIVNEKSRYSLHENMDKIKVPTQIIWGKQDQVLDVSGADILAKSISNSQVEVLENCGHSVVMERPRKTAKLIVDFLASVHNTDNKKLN

Take `CC1CN(C(=O)OC(C(F)(F)F)C(F)(F)F)CCN1C(c1ccc(Cl)cc1)c1ccc(Cl)cc1` (stereo not drawn) [Example 2h, 1,1,1,3,3,3-hexafluoropropan-2-yl 4-[bis(4-chlorophenyl)methyl]-3-methylpiperazine-1-carboxylate]: the inhibition (usually the drop in the measured response relative to a control, in per cent) at 1 µM on MAGL [1] was 25 to 75%; on FAAH [2], below 25%; on ABHD6 [3], 25 to 75%.

As to `Cn1ncc2cc(C(c3ccc4c(cnn4C)c3)N3CCN(C(=O)OC(C(F)(F)F)C(F)(F)F)CC3)ccc21` [Example 2k, 1,1,1,3,3,3-hexafluoropropan-2-yl 4-(bis(1-methyl-1H-indazol-5-yl)methyl)piperazine-1-carboxylate], the inhibition at 1 µM on FAAH [2] was below 25%.

At FAAH [2], `O=C(OC(C(F)(F)F)C(F)(F)F)N1CCN(Cc2c(Cl)cccc2N2CCOCC2)CC1` [Example 9ac, 1,1,1,3,3,3-hexafluoropropan-2-yl 4-[[2-chloro-6-(morpholin-4-yl)phenyl]methyl]piperazine-1-carboxylate] gave an inhibition at 1 µM below 25%.

Regarding `O=C(OC(C(F)(F)F)C(F)(F)F)N1CCN(Cc2ccc(N3CCOCC3)cc2C(F)(F)F)CC1` [Example 9aj, 1,1,1,3,3,3-hexafluoropropan-2-yl 4-[[4-(morpholin-4-yl)-2-(trifluoromethyl)phenyl]methyl]piperazine-1-carboxylate], the figures for the inhibition at 1 µM on MAGL [1], on FAAH [2] and at ABHD6 [3] were 25 to 75%, below 25% and 25 to 75%, respectively.

`O=C(OC(C(F)(F)F)C(F)(F)F)N1CCN(Cc2ccc(N3CCOCC3)cc2OC(F)(F)F)CC1` [Example 9ak, 1,1,1,3,3,3-hexafluoropropan-2-yl 4-[[4-(morpholin-4-yl)-2-(trifluoromethoxy)phenyl]methyl]piperazine-1-carboxylate]: the inhibition at 1 µM on MAGL [1] was above 75%; on FAAH [2], below 25%; on ABHD6 [3], 25 to 75%.

For `C[C@H]1CN(Cc2ccc(N3CCOCC3)cc2Cl)CCN1C(=O)OC(C(F)(F)F)C(F)(F)F` [Example 9al, 1,1,1,3,3,3-hexafluoropropan-2-yl(2S)-4-[[2-chloro-4-(morpholin-4-yl)phenyl]methyl]-2-methylpiperazine-1-carboxylate], the inhibition at 1 µM on MAGL [1] is 25 to 75%; at FAAH [2] it was below 25%; on ABHD6 [3], 25 to 75%.

As for `C[C@@H]1CN(Cc2ccc(N3CCOCC3)cc2Cl)CCN1C(=O)OC(C(F)(F)F)C(F)(F)F` [Example 9am, 1,1,1,3,3,3-hexafluoropropan-2-yl(2R)-4-[[2-chloro-4-(morpholin-4-yl)phenyl]methyl]-2-methylpiperazine-1-carboxylate], the inhibition at 1 µM at MAGL [1], on FAAH [2] and at ABHD6 [3] was below 25% throughout.

As to `CC(C)c1cc(-c2ccccc2)ccc1CN1CCN(C(=O)OC(C(F)(F)F)C(F)(F)F)CC1` [Example 9at, 1,1,1,3,3,3-hexafluoropropan-2-yl 4-((3-isopropyl-[1,1′-biphenyl]-4-yl)methyl)piperazine-1-carboxylate], the inhibition at 1 µM on MAGL [1] was 25 to 75%; at FAAH [2], below 25%; on ABHD6 [3], below 25%.

Take `CC(C)c1cc(N2CCOCC2)ccc1CN1CCN(C(=O)OC(C(F)(F)F)C(F)(F)F)CC1` [Example 9bc, 1,1,1,3,3,3-hexafluoropropan-2-yl 4-[[4-(morpholin-4-yl)-2-(propan-2-yl)phenyl]methyl]piperazine-1-carboxylate]: the inhibition at 1 µM was 25 to 75% at MAGL [1], below 25% on FAAH [2] and below 25% at ABHD6 [3].

With `O=C(OC(C(F)(F)F)C(F)(F)F)N1CCN(Cc2ccc(C(=O)N3CCCC3)cc2Cl)CC1` [Example 9bd, 1,1,1,3,3,3-hexafluoropropan-2-yl 4-(2-chloro-4-(pyrrolidine-1-carbonyl)benzyl)piperazine-1-carboxylate], the inhibition at 1 µM is 25 to 75% on MAGL [1], below 25% at FAAH [2] and 25 to 75% on ABHD6 [3].

As to `O=C(OC(C(F)(F)F)C(F)(F)F)N1CCN(Cc2cccc(Cl)c2C(=O)N2CCOCC2)CC1` [Example 9bf, 1,1,1,3,3,3-hexafluoropropan-2-yl 4-(3-chloro-2-(morpholine-4-carbonyl)benzyl)piperazine-1-carboxylate], the inhibition at 1 µM at MAGL [1] is 25 to 75%; on FAAH [2], below 25%; on ABHD6 [3], below 25%.

For the compound `O=C(OC(C(F)(F)F)C(F)(F)F)N1CCN(Cc2ccc(N3CCOCC3)cc2)CC1` [Example 9f, 1,1,1,3,3,3-hexafluoropropan-2-yl 4-(4-morpholinobenzyl)piperazine-1-carboxylate], the IC50 – broadly, the concentration needed to halve the response being measured – was above 10000 nM at FAAH [4], 100 to 1000 nM on MAGL [5] and 100 to 1000 nM at ABHD6 [6].

As to `O=C(OC(C(F)(F)F)C(F)(F)F)N1CCN(Cc2ccc(N3CCCC3)cc2)CC1` [Example 9g, 1,1,1,3,3,3-hexafluoropropan-2-yl 4-(4-(pyrrolidin-1-yl)benzyl)piperazine-1-carboxylate], the concentration for half-maximal inhibition (IC50) was above 10000 nM at FAAH [4], 100 to 1000 nM on MAGL [5] and above 1000 nM at ABHD6 [6].

With `O=C(OC(C(F)(F)F)C(F)(F)F)N1CCN(Cc2ccc(N3CCOCC3)c(Cl)c2)CC1` [Example 9h, 1,1,1,3,3,3-hexafluoropropan-2-yl 4-(3-chloro-4-morpholinobenzyl)piperazine-1-carboxylate], the IC50 at FAAH [4] was above 10000 nM; at MAGL [5], 100 to 1000 nM; at ABHD6 [6], 100 to 1000 nM.

On to `C[C@H]1CN(Cc2ccc(N3CCOCC3)cc2F)CCN1C(=O)OC(C(F)(F)F)C(F)(F)F` [Example 9i, 1,1,1,3,3,3-hexafluoropropan-2-yl(2S)-4-[[2-fluoro-4-(morpholin-4-yl)phenyl]methyl]-2-methylpiperazine-1-carboxylate], for which the figures for the inhibition at 1 µM on MAGL [1], on FAAH [2] and at ABHD6 [3] were 25 to 75%, below 25% and 25 to 75%, respectively.

`O=C(OC(C(F)(F)F)C(F)(F)F)N1CCN(Cc2ccc(Cl)cc2)CC1` [Example 9o, 1,1,1,3,3,3-hexafluoropropan-2-yl 4-(4-chlorobenzyl)piperazine-1-carboxylate] gave an inhibition at 1 µM at FAAH [2] below 25%.

`Cc1cc(N2CCCC2)ccc1CN1CCN(C(=O)OC(C(F)(F)F)C(F)(F)F)CC1` [Example 9u, 1,1,1,3,3,3-hexafluoropropan-2-yl 4-(2-methyl-4-(pyrrolidin-1-yl)benzyl)piperazine-1-carboxylate]: the results for the IC50 on FAAH [4], at MAGL [5] and at ABHD6 [6] were above 6250 nM, 100 to 1000 nM and above 1000 nM, respectively.

Regarding `COc1ccc(CN2CCN(C(=O)OC(C(F)(F)F)C(F)(F)F)CC2)cc1` [Example 9v, 1,1,1,3,3,3-hexafluoropropan-2-yl 4-(4-methoxybenzyl)piperazine-1-carboxylate], the IC50 was above 6250 nM on FAAH [4], below 100 nM on MAGL [5] and 100 to 1000 nM on ABHD6 [6].

On to `Cc1ccc(CN2CCN(C(=O)OC(C(F)(F)F)C(F)(F)F)CC2)cc1` [Example 9w, 1,1,1,3,3,3-hexafluoropropan-2-yl 4-(4-methylbenzyl)piperazine-1-carboxylate], for which the concentration for half-maximal inhibition (IC50) is above 1250 nM on FAAH [4], below 100 nM on MAGL [5] and above 1000 nM at ABHD6 [6].

In the case of `CC(C)n1cc(CN2CCN(C(=O)OC(C(F)(F)F)C(F)(F)F)CC2)c(-c2ccccc2)n1` [Example 10h, 1,1,1,3,3,3-hexafluoropropan-2-yl 4-[[3-phenyl-1-(propan-2-yl)-1H-pyrazol-4-yl]methyl]piperazine-1-carboxylate], the IC50 was above 10000 nM at FAAH [4], 100 to 1000 nM on MAGL [5] and 100 to 1000 nM on ABHD6 [6].

With `COc1cc(-c2ccccc2)ccc1CN1CCN(C(=O)OC(C(F)(F)F)C(F)(F)F)CC1` [Example 11j, 1,1,1,3,3,3-hexafluoropropan-2-yl 4-[(2-methoxy-4-phenylphenyl)methyl]piperazine-1-carboxylate], the concentration for half-maximal inhibition (IC50) is above 10000 nM on FAAH [4], below 100 nM at MAGL [5] and above 1000 nM at ABHD6 [6].

`O=C(OC(C(F)(F)F)C(F)(F)F)N1CCN(Cc2ccc(-c3ccccc3)cc2F)CC1` [Example 11p, 1,1,1,3,3,3-hexafluoropropan-2-yl 4-[(2-fluoro-4-phenylphenyl)methyl]piperazine-1-carboxylate]: the IC50 at FAAH [4] was above 10000 nM; on MAGL [5] it was below 100 nM; at ABHD6 [6], above 1000 nM.

For the compound `Cc1cc(-c2ccccc2)ccc1CN1CCN(C(=O)OC(C(F)(F)F)C(F)(F)F)CC1` [Example 11q, 1,1,1,3,3,3-hexafluoropropan-2-yl 4-[(2-methyl-4-phenylphenyl)methyl]piperazine-1-carboxylate], the IC50 is above 10000 nM on FAAH [4], 100 to 1000 nM on MAGL [5] and above 1000 nM at ABHD6 [6].

Take `CN(C)C(=O)c1cc(-c2ccccc2)ccc1CN1CCN(C(=O)OC(C(F)(F)F)C(F)(F)F)CC1` [Example 11x, 1,1,1,3,3,3-hexafluoropropan-2-yl 4-[[2-(dimethylcarbamoyl)-4-phenylphenyl]methyl]piperazine-1-carboxylate]: the IC50 at FAAH [4] is above 10000 nM; on MAGL [5] it was 100 to 1000 nM; at ABHD6 [6] it was above 1000 nM.
